Measured values reported in US11986471B2, “Compounds and methods of use” (Tango Therapeutics, Inc., priority 2018, dated 2024).

Columns and labels:
[1] = target: T1, PRMT5 (Homo sapiens, UniProt O14744); test: PRMT5 IC50 assay in the presence of SAM as cofactor; assay type: biochemical
T1 construct: purchased Viva (custom protein)
In short: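 Three cofactor conditions tested for PRMT5 inhibition: none, MTA and SAM, each giving an IC50. For conversion to Ki, the MTA-condition IC50 is divided by 13.5 and the SAM-condition IC50 by 1.5, and the two Ki values are expressed as a SAM/MTA ratio.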

[2] = target: T1, PRMT5; test: PRMT5 IC50 assay with no cofactor; assay type: biochemical; settings: read-out: No Co-factor IC50
In short: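 Each compound is tested on PRMT5 in the presence of SAM, of MTA, and without any cofactor. Ki values are then back-calculated using fixed factors of 1.5 (SAM) and 13.5 (MTA), and the two Ki values are compared as a ratio.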

[3] = target: T1, PRMT5; test: PRMT5 IC50 assay in the presence of MTA as cofactor; assay type: biochemical; settings: for IC50: PRMT5, MTA as cofactor; for SAM/MTA Ratio: ratio between Ki in the presence of SAM and Ki in the presence of MTA
In short: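 IC50 against PRMT5 determined with SAM as cofactor, with no cofactor, and with MTA as cofactor. Ki derived as IC50/1.5 for the SAM assay and IC50/13.5 for the MTA assay; SAM Ki to MTA Ki ratio also reported.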

[4] = test system: HAP1 MTAP-intact; test: SDMA in-cell western assay, HAP1 MTAP-intact cell line; assay type: cell-based; settings: Homo sapiens
In short: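 Cells from two matched HAP1 lines, MTAP-null and MTAP-expressing at endogenous levels, are treated with compound. SDMA is then quantified by in-cell western and an IC50 is calculated for each line.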

[5] = test system: HAP1 MTAP-deleted; test: SDMA in-cell western assay, HAP1 MTAP-deleted cell line; assay type: cell-based; settings: for IC50: Homo sapiens, HAP1 MTAP-deleted cell line; for MTAP Intact/Deleted Ratio: IC50 ratio HAP1 MTAP-intact / HAP1 MTAP-deleted
In short: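 MTAP-null HAP1 cells, the deleted member of an isogenic pair with endogenously MTAP-expressing HAP1, are treated with compound. SDMA is then quantified by in-cell western and an IC50 is calculated.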

T1 sequence (O14744 whole entry): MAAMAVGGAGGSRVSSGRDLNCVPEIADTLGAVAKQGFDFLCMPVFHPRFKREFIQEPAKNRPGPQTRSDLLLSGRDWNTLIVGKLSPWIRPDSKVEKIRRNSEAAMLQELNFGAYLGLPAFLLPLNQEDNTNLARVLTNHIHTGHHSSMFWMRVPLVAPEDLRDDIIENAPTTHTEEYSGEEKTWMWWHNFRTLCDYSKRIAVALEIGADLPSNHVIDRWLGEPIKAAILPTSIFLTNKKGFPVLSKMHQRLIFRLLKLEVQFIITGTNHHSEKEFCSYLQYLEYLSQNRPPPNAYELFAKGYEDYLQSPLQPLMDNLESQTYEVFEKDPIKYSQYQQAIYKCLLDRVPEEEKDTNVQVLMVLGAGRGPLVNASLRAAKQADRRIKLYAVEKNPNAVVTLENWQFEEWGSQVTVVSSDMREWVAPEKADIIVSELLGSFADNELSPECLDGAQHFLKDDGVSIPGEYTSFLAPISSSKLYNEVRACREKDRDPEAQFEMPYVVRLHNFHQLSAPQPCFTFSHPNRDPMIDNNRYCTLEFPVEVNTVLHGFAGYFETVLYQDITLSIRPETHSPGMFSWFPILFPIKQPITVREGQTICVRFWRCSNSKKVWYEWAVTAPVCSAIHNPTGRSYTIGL
T1 sequence (Q9BQA1 whole entry partner): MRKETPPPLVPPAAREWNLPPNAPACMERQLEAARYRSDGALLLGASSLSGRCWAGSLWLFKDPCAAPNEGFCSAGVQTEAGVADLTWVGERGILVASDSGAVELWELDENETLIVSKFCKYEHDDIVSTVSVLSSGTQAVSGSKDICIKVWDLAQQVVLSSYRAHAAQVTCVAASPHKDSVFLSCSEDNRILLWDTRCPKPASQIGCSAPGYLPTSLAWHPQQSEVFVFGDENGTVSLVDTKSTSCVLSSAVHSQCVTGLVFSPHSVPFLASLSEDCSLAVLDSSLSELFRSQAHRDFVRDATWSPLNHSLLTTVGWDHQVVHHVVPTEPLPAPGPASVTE

Structure (SMILES) | IC50 [1] [nM] | IC50 [2] [nM] | IC50 [3] [nM] | IC50 [4] [nM] | IC50 [5] [nM] | SAM/MTA Ratio [3] | MTAP Intact/Deleted Ratio [5]
Cc1ncoc1COc1ccc2c(c1C)CCN(C[C@@H](O)CNC(=O)c1cc(NC3CCCC3)ncn1)C2 [Compound 367, 6-(cyclopentylamino)-N-[(2S)-2-hydroxy-3-{5-methyl-6-[(4-methyl-1,3-oxazol-5-yl)methoxy]-1,2,3,4-tetrahydroisoquinolin-2-yl}propyl]pyrimidine-4-carboxamide] | 500 to 5000 | ≥ 5000 | 50 to 500 | ≥ 10000 | ≥ 10000 | A (a Ki ratio greater than or equal to 10 fold between the Ki in the presence of SAM and the Ki in the presence of MTA) | C* (an IC50 ratio of less than 3 fold between the IC50 in the HAP1 MTAP-intact cell line and the HAP1 MTAP-deleted cell line)
Cc1ncoc1COc1ccc2c(c1C)CCN(C[C@@H](O)CNC(=O)c1cc(NC3CCCCC3)ncn1)C2 [Compound 368, 6-(cyclohexylamino)-N-[(2S)-2-hydroxy-3-{5-methyl-6-[(4-methyl-1,3-oxazol-5-yl)methoxy]-1,2,3,4-tetrahydroisoquinolin-2-yl}propyl]pyrimidine-4-carboxamide] | 500 to 5000 | ≥ 5000 | 50 to 500 | ≥ 10000 | ≥ 10000 | A (a Ki ratio greater than or equal to 10 fold between the Ki in the presence of SAM and the Ki in the presence of MTA) | C* (an IC50 ratio of less than 3 fold between the IC50 in the HAP1 MTAP-intact cell line and the HAP1 MTAP-deleted cell line)
COCCN(C)c1cc(C(=O)NC[C@H](O)CN2CCc3cc(OCc4cnco4)ccc3C2)cc(NC2CCC2)n1 [Compound 369, (S)-2-(cyclobutylamino)-N-(2-hydroxy-3-(6-(oxazol-5-ylmethoxy)-3,4-dihydroisoquinolin-2(1H)-yl)propyl)-6-((2-methoxyethyl)(methyl)amino)isonicotinamide] | 500 to 5000 | 500 to 5000 | 50 to 500 | 1000 to 10000 | ≥ 10000 | A (a Ki ratio greater than or equal to 10 fold between the Ki in the presence of SAM and the Ki in the presence of MTA) | C* (an IC50 ratio of less than 3 fold between the IC50 in the HAP1 MTAP-intact cell line and the HAP1 MTAP-deleted cell line)
Cc1ncoc1COc1ccc2c(c1C)CCN(C[C@@H](O)CNC(=O)c1cc(NC3CCC3)ncn1)C2 [Compound 371, 6-(cyclobutylamino)-N-[(2S)-2-hydroxy-3-{5-methyl-6-[(4-methyl-1,3-oxazol-5-yl)methoxy]-1,2,3,4-tetrahydroisoquinolin-2-yl}propyl]pyrimidine-4-carboxamide] | 500 to 5000 | ≥ 5000 | 50 to 500 | ≥ 10000 | < 1000 | A (a Ki ratio greater than or equal to 10 fold between the Ki in the presence of SAM and the Ki in the presence of MTA) | A* (an IC50 ratio greater than or equal to 10 fold between the IC50 in the HAP1 MTAP-intact cell line and the HAP1 MTAP-deleted cell line)
O=C(NC[C@H](O)CN1CCc2cc(OCc3cnco3)ccc2C1)c1cc(NC2CCCC2)ncn1 [Compound 372, (S)-6-(cyclopentylamino)-N-(2-hydroxy-3-(6-(oxazol-5-ylmethoxy)-3,4-dihydroisoquinolin-2(1H)-yl)propyl)pyrimidine-4-carboxamide] | 500 to 5000 | ≥ 5000 | 50 to 500 | < 1000 | < 1000 | A (a Ki ratio greater than or equal to 10 fold between the Ki in the presence of SAM and the Ki in the presence of MTA) | C* (an IC50 ratio of less than 3 fold between the IC50 in the HAP1 MTAP-intact cell line and the HAP1 MTAP-deleted cell line)

The next lines start with results.

IC50 [1] [nM] | IC50 [2] [nM] | IC50 [3] [nM] | IC50 [4] [nM] | IC50 [5] [nM] | Structure (SMILES) | SAM/MTA Ratio [3] | MTAP Intact/Deleted Ratio [5]
50 to 500 | 500 to 5000 | 50 to 500 | ≥ 10000 | < 1000 | CC(=O)N1CC(Nc2cc(C(=O)NC[C@H](O)CN3CCc4c(ccc(OCc5cnco5)c4Cl)C3)nc(C(C)(C)C)n2)C1 [Compound 360, (S)-6-((1-acetylazetidin-3-yl)amino)-2-(tert-butyl)-N-(3-(5-chloro-6-(oxazol-5-ylmethoxy)-3,4-dihydroisoquinolin-2(1H)-yl)-2-hydroxypropyl)pyrimidine-4-carboxamide] | A (a Ki ratio greater than or equal to 10 fold between the Ki in the presence of SAM and the Ki in the presence of MTA) | A* (an IC50 ratio greater than or equal to 10 fold between the IC50 in the HAP1 MTAP-intact cell line and the HAP1 MTAP-deleted cell line)
500 to 5000 | ≥ 5000 | 500 to 5000 | ≥ 10000 | ≥ 10000 | O=C(NC[C@H](O)CN1CCc2c(ccc(OCc3cnco3)c2Br)C1)c1cc(NC2CCC2)ncn1 [Compound 361, (S)—N-(3-(5-bromo-6-(oxazol-5-ylmethoxy)-3,4-dihydroisoquinolin-2(1H)-yl)-2-hydroxypropyl)-6-(cyclobutylamino)pyrimidine-4-carboxamide] | A (a Ki ratio greater than or equal to 10 fold between the Ki in the presence of SAM and the Ki in the presence of MTA) | C* (an IC50 ratio of less than 3 fold between the IC50 in the HAP1 MTAP-intact cell line and the HAP1 MTAP-deleted cell line)
500 to 5000 | ≥ 5000 | 50 to 500 | < 1000 | 1000 to 10000 | O=C(NC[C@H](O)CN1CCc2cc(OCc3cnco3)cc(F)c2C1)c1ccnc(NC2CCC2)c1 [Compound 362, 2-(cyclobutylamino)-N-[(2S)-3-[8-fluoro-6-(oxazol-5-ylmethoxy)-3,4-dihydro-1H-isoquinolin-2-yl]-2-hydroxy-propyl]pyridine-4-carboxamide] | A (a Ki ratio greater than or equal to 10 fold between the Ki in the presence of SAM and the Ki in the presence of MTA) | C* (an IC50 ratio of less than 3 fold between the IC50 in the HAP1 MTAP-intact cell line and the HAP1 MTAP-deleted cell line)
50 to 500 | ≥ 5000 | 50 to 500 | ≥ 10000 | 1000 to 10000 | O=C(NC[C@H](O)CN1CCc2cc(OCc3cnco3)c(F)c(F)c2C1)c1ccnc(NC2CCC2)c1 [Compound 364, 2-(cyclobutylamino)-N-[(2S)-3-[7,8-difluoro-6-(oxazol-5-ylmethoxy)-3,4-dihydro-1H-isoquinolin-2-yl]-2-hydroxy-propyl]pyridine-4-carboxamide] | A (a Ki ratio greater than or equal to 10 fold between the Ki in the presence of SAM and the Ki in the presence of MTA) | C* (an IC50 ratio of less than 3 fold between the IC50 in the HAP1 MTAP-intact cell line and the HAP1 MTAP-deleted cell line)
50 to 500 | 500 to 5000 | < 50 | 1000 to 10000 | < 1000 | CC(=O)N1CC(Nc2cc(C(=O)NC[C@H](O)CN3CCc4cc(OCc5cnco5)ccc4C3)nc(N3CCCCC3)n2)C1 [Compound 365, (S)-6-((1-acetylazetidin-3-yl)amino)-N-(2-hydroxy-3-(6-(oxazol-5-ylmethoxy)-3A-dihydroisoquinolin-2(1H)-yl)propyl)-2-(piperidin-1-yl)pyrimidine-4-carboxamide] | A (a Ki ratio greater than or equal to 10 fold between the Ki in the presence of SAM and the Ki in the presence of MTA) | B* (an IC50 ratio greater than or equal to 3 fold but lower than 10 fold between the IC50 in the HAP1 MTAP-intact cell line and the HAP1 MTAP-deleted cell line)
50 to 500 | 500 to 5000 | 50 to 500 | ≥ 10000 | 1000 to 10000 | O=C(NC[C@H](O)CN1CCc2c(ccc(OCc3cnco3)c2Cl)C1)c1ccnc(NC2CCN(C(=O)C3CC3)CC2)c1 [Compound 366, (S)—N-(3-(5-chloro-6-(oxazol-5-ylmethoxy)-3N-dihydroisoquinolin-2(1H)-yl)-2-hydroxypropyl)-2-((1-(cyclopropanecarbonyl)piperidin-4-yl)amino)isonicotinamide] | A (a Ki ratio greater than or equal to 10 fold between the Ki in the presence of SAM and the Ki in the presence of MTA) | B* (an IC50 ratio greater than or equal to 3 fold but lower than 10 fold between the IC50 in the HAP1 MTAP-intact cell line and the HAP1 MTAP-deleted cell line)
50 to 500 | ≥ 5000 | 50 to 500 | ≥ 10000 | 1000 to 10000 | CC(C)(C)N1CCN(c2nc(NC3COC3)cc(C(=O)NC[C@H](O)CN3CCc4c(ccc(OCc5cnco5)c4Cl)C3)n2)CC1 [Compound 370, (S)-2-(4-(tert-butyl)piperazin-1-yl)-N-(3-(5-chloro-6-(oxazol-5-ylmethoxy)-3N-dihydroisoquinolin-2(1H)-yl)-2-hydroxypropyl)-6-(oxetan-3-ylamino)pyrimidine-4-carboxamide] | A (a Ki ratio greater than or equal to 10 fold between the Ki in the presence of SAM and the Ki in the presence of MTA) | C* (an IC50 ratio of less than 3 fold between the IC50 in the HAP1 MTAP-intact cell line and the HAP1 MTAP-deleted cell line)
